Results from ChEMBL document CHEMBL1201862, “PubChem BioAssay data set” (2004).
Calls of active or inactive are those of the source.

Key:
[1] = Luminescence Cell-Based Dose Response HTS to Identify Inhibitors of Luciferase Translation or Activity in H4-C Neuroglioblastoma Cells. [Related pubchem assays: 1813 (Primary HTS), 1827 (Project Summary)]; assay type: functional
[2] = Luminescence Cell-Based Dose Response HTS to Identify Activators of Luciferase Translation or Activity in H4-C Neuroglioblastoma Cells. [Related pubchem assays: 1829 (Project Summary), 1814 (Primary HTS)]; assay type: functional
[3] = luciferase reporter signal suppression in cells – H4 neuroglioma cells, luminescence, dose response (AID 1990); assay type: functional, cell-based
[4] = Luminescence Cell-Based Dose Retest to Confirm Activators of 5'UTR Stem-Loop Driven Alpha-Synuclein mRNA Translation in H4 Neuroglioblastoma Cells. [Related pubchem assays (depositor defined):AID1813, AID1829]; assay type: functional
[5] = Luminescence Cell-Based Dose Response HTS to Identify Activators of 5'UTR Stem-Loop Driven Prion Protein mRNA Translation in H4-C Neuroglioblastoma Cells. [Related pubchem assays: 1829 (Project Summary), 1814 (Primary HTS)]; assay type: functional
[6] = Luminescence Cell-Based Dose HTS Response to Identify Inhibitors of 5'UTR Stem-Loop Driven Prion Protein mRNA Translation in H4-C Neuroglioblastoma Cells. [Related pubchem assays (depositor defined):AID1814, AID1827]; assay type: functional
[7] = alpha-synuclein stem-loop luciferase translation blockers – H4 neuroglioma cells, luminescence, confirmation (AID 1988); assay type: functional, cell-based
[8] = Luminescence Cell-Based Dose Confirmation HTS to Identify Inhibitors of 5'UTR Stem-Loop Driven Alpha-Synuclein mRNA Translation in H4 Neuroglioblastoma Cells. [Related pubchem assays: 1827 (Project Summary), 1813 (Primary HTS)]; assay type: functional
[9] = HEK-293T viability loss after treatment – luminescence, T-cell screen hits, cytotoxicity control for TCR NF-kB inhibitor project, dose response (AID 489026); assay type: functional, cell-based;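 further: cells exposed to compound about 14 hours before the viability readout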
Bcl-2-related protein A1 = target: T1, Bcl-2-related protein A1 (Mus musculus, UniProt Q07440); assay type: functional;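 further: confirmatory dose–response counterscreen on Bfl-1, used to check hits from a UBC13 polyubiquitin inhibitor campaign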
T1 sequence (Q07440 whole entry): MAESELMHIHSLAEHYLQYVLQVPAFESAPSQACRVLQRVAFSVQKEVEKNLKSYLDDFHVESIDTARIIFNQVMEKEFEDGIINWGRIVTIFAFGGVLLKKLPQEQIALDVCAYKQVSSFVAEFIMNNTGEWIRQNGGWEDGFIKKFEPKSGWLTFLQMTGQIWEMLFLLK

[10] = target: T2, Ubiquitin-conjugating enzyme E2 N (Homo sapiens, UniProt P61088); assay type: functional
T2 sequence (P61088 whole entry): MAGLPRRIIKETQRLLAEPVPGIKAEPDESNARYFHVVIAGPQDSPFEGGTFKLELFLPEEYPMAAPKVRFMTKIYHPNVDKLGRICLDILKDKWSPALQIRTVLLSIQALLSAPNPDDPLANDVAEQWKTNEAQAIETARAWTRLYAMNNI

[11] = target: T2, Ubiquitin-conjugating enzyme E2 N; assay type: functional; remark: listed apart in the source
[12] = target: T3, G-protein coupled receptor 35 (Homo sapiens, UniProt Q9HC97); experiment: SAR analysis of Agonists of the GPR35 Receptor using an Image-Based Assay - Set 4. [Related pubchem assays (depositor defined):AID2013, AID2026]; assay type: functional
Cannabinoid receptor 1 [13] = target: T4, Cannabinoid receptor 1 (Homo sapiens, UniProt P21554); experiment: SAR analysis of agonists of the Cannabinoid Receptor 1 using an Image-Based Assay - Set 4. [Related pubchem assays (depositor defined):AID2013, AID2026]; assay type: functional
[14] = target: T3, G-protein coupled receptor 35; experiment: SAR analysis of Antagonists of the GPR35 Receptor using an Image-Based Assay - Set 6. [Related pubchem assays (depositor defined):AID2013, AID2026]; assay type: functional
Cannabinoid receptor 1 [15] = target: T4, Cannabinoid receptor 1; experiment: SAR analysis of antagonists of the Cannabinoid Receptor 1 using an Image-Based Assay - Set 4. [Related pubchem assays (depositor defined):AID2013, AID2026]; assay type: functional
[16] = target: G-protein coupled receptor 55 (Homo sapiens, UniProt Q9Y2T6); experiment: SAR Analysis of Selective Antagonists of GPR55 using an Image-Based Assay - Set 4. [Related pubchem assays (depositor defined):AID2013, AID2026]; assay type: functional;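 further: antagonism of response to 5 µM lysophosphatidylinositol agonist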
Cannabinoid receptor 2 [17] = target: T5, Cannabinoid receptor 2 (Homo sapiens, UniProt P34972); experiment: SAR analysis of antagonists of the Cannabinoid Receptor 2 using an Image-Based Assay - Set 3. [Related pubchem assays (depositor defined):AID2013, AID2026]; assay type: functional
Cannabinoid receptor 2 [18] = target: T5, Cannabinoid receptor 2; experiment: SAR analysis of agonists of the Cannabinoid Receptor 2 using an Image-Based Assay - Set 3. [Related pubchem assays (depositor defined):AID2013, AID2026]; assay type: functional
Mu-type opioid receptor [19] = target: T6, Mu-type opioid receptor (Homo sapiens, UniProt P35372); experiment: SAR Analysis of Antagonists of the MOR Receptor using an Image-Based Assay - Set 2. [Related pubchem assays (depositor defined):AID1777, AID1785, AID1786, AID1966, AID2133, AID2136, AID2284, AID2285, AID2420]; assay type: functional
[20] = target: T7, Kappa-type opioid receptor (Homo sapiens, UniProt P41145); experiment: SAR analysis of Antagonists of the Kappa Opioid Receptor (KOR) using an Image-Based Assay - Set 2. [Related pubchem assays (depositor defined):AID1777, AID1785, AID1786, AID1966, AID2133, AID2136, AID2284, AID2285, AID2348]; assay type: functional
Mu-type opioid receptor [21] = target: T6, Mu-type opioid receptor; experiment: SAR Analysis of Agonists of the MOR Receptor using an Image-Based Assay - Set 2. [Related pubchem assays (depositor defined):AID1777, AID1785, AID1786, AID1966, AID2133, AID2136, AID2284, AID2285, AID2352]; assay type: functional
[22] = target: T7, Kappa-type opioid receptor; experiment: SAR analysis of small molecule agonists of the kappa opioid receptor via a luminescent beta-arrestin assay - Set 2. [Related pubchem assays (depositor defined):AID1777, AID1785, AID1786, AID1966, AID2133, AID2136, AID2284, AID449737]; assay type: functional
[23] = target: T8, Delta-type opioid receptor (Homo sapiens, UniProt P41143); experiment: SAR Analysis of Agonists of the DOR Receptor using an Image-Based Assay - Set 2. [Related pubchem assays (depositor defined):AID1777, AID1785, AID1786, AID1966, AID2133, AID2136, AID2284, AID2285, AID2370]; assay type: functional
[24] = target: T8, Delta-type opioid receptor; experiment: SAR Analysis of Antagonists of the DOR Receptor using an Image-Based Assay - Set 2. [Related pubchem assays (depositor defined):AID1777, AID1785, AID1786, AID1966, AID2133, AID2136, AID2284, AID2285, AID2357]; assay type: functional
[25] = target: T7, Kappa-type opioid receptor; experiment: SAR analysis of Agonists of the Kappa Opioid Receptor (KOR) using an Image-Based Assay - Set 2. [Related pubchem assays (depositor defined):AID1777, AID1786, AID1966, AID2133, AID2136, AID2284, AID2285, AID2359]; assay type: functional

T7 sequence (P41145 whole entry): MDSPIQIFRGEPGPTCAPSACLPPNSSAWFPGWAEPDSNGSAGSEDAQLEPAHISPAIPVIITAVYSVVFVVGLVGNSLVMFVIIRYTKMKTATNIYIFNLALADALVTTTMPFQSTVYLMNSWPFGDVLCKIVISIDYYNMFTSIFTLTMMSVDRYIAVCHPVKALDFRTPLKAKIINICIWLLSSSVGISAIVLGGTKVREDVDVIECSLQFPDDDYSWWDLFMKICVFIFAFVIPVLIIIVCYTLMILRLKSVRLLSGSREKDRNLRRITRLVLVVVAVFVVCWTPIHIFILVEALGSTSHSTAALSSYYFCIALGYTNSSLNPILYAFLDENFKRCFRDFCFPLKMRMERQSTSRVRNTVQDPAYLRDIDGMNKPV
T3 sequence (Q9HC97 whole entry): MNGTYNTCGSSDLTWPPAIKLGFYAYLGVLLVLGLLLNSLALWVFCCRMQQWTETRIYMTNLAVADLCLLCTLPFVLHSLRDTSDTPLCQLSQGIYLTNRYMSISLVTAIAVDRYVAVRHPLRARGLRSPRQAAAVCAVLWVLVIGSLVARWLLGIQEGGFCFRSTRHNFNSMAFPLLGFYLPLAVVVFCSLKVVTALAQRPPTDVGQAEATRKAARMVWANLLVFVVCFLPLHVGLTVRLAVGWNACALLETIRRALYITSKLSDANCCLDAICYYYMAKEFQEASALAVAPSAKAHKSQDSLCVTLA
T8 sequence (P41143 whole entry): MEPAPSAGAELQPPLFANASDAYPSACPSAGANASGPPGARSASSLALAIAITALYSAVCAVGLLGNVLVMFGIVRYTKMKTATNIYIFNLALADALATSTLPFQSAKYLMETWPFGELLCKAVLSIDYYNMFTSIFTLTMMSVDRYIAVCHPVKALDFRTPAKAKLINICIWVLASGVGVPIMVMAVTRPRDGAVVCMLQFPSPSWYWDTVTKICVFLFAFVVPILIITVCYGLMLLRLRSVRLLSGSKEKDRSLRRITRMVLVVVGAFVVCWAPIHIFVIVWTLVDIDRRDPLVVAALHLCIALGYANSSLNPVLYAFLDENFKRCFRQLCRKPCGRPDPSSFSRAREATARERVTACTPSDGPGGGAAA
T4 sequence (P21554 whole entry): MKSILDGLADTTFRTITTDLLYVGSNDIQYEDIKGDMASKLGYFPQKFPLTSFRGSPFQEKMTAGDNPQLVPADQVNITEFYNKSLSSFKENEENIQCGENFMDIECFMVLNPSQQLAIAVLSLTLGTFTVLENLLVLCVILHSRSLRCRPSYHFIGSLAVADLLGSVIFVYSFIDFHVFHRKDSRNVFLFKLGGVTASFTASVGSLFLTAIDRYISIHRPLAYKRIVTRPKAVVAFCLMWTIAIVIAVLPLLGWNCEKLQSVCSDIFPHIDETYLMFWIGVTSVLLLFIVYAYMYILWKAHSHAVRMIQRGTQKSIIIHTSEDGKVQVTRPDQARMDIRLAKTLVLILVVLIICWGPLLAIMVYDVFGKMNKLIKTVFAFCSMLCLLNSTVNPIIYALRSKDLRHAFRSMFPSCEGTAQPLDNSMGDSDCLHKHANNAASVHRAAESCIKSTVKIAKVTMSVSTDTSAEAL
T6 sequence (P35372 whole entry): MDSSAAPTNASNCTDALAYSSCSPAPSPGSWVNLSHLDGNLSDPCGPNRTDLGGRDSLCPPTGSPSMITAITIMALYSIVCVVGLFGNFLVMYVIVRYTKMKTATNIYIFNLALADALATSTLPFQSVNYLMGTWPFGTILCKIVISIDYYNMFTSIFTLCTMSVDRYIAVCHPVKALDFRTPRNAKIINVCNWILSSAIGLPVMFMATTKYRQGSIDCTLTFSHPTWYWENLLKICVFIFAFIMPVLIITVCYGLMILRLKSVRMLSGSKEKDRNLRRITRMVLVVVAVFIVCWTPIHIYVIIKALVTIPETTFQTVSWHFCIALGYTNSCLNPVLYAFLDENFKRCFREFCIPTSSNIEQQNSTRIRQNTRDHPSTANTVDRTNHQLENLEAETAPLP
T5 sequence (P34972 whole entry): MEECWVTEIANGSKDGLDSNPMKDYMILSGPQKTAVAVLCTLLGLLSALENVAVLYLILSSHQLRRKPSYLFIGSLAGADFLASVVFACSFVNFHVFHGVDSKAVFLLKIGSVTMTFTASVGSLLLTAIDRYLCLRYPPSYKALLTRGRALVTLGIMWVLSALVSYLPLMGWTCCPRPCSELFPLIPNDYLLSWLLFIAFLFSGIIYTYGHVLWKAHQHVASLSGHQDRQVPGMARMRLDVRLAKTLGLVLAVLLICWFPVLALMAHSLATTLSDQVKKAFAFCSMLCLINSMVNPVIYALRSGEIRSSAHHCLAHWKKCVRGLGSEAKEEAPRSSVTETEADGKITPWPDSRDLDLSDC
G-protein coupled receptor 55, sequence (Q9Y2T6 whole entry): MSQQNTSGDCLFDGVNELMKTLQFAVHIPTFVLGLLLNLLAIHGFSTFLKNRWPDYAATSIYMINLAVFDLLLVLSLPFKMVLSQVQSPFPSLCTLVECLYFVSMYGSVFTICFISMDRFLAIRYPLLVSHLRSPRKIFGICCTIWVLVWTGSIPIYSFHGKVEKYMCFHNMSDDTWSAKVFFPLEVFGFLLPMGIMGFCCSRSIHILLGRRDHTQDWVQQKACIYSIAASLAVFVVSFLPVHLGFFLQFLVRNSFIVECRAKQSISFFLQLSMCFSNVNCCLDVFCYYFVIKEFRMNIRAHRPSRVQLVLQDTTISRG

COc1ccc(/C=C/C(=O)c2cc(F)ccc2OC(=O)c2ccccc2)cc1OC
EC50 [1]: 0.697 µM (active) | EC50 [2]: 0.697 µM (inconclusive) | EC50 [3]: 12.8 µM (active) | EC50 [4]: 0.666 µM (inconclusive) | EC50 [5]: 0.699 µM (inconclusive) | EC50 [6]: 0.699 µM (active) | EC50 [7]: < 0.195 µM (active) | EC50 [8]: 0.666 µM (active) | IC50 [9]: > 80 µM (inactive)

C/C(=N\NC(=O)CSCc1ccc([N+](=O)[O-])cc1)c1ccccc1
IC50 (Bcl-2-related protein A1): > 20 µM (inactive) | IC50 [10]: 6.86 µM (active) | IC50 [11]: 4.9 µM (active)

O=C(N1CCC(n2nc(-c3ccccc3)oc2=O)CC1)C1(c2ccccc2)CCCC1
EC50 [12]: > 32 µM (inactive) | EC50 (Cannabinoid receptor 1 [13]): > 32 µM (inactive) | IC50 [14]: > 32 µM (inactive) | IC50 (Cannabinoid receptor 1 [15]): 1.98 µM (active) | IC50 [16]: 2.7 µM (active) | IC50 (Cannabinoid receptor 2 [17]): 14 µM (inactive) | EC50 (Cannabinoid receptor 2 [18]): > 32 µM (inactive)

CCc1ccc(S(=O)(=O)NCc2ccc(C(=O)NCCN(Cc3ccccc3)C(C)C)cc2)cc1
IC50 (Mu-type opioid receptor [19]): > 32 µM (inactive) | IC50 [20]: 2.55 µM (active) | EC50 (Mu-type opioid receptor [21]): > 32 µM (inactive) | EC50 [22]: > 20 µM (inactive) | EC50 [23]: > 32 µM (inactive) | IC50 [24]: > 32 µM (inactive) | EC50 [25]: > 32 µM (inactive)
